Experimental data published in US7579370B2, “Fused heterocycles” (Sepracor Inc., priority 2006, dated 2009).

How the values were obtained:
[1] = system: Sprague-Dawley rats; experiment: Rat Chung model (L5 spinal nerve ligation), paw withdrawal threshold with von Frey hairs; assay type: in vivo
Description: Adult male Sprague-Dawley rats, weighing 200-230 g at the time of surgery, were used. They were housed in groups of 4 in an air-conditioned room on a 12 h light/dark cycle. Food and water were available ad libitu. The animals were allowed to acclimatize to the experimental environment for three days by leaving them on a lifted metal mesh for at least 40 min. The baseline paw withdrawal threshold (PWT) was examined using a series of graduated von Frey hairs for 3 consecutive days before surgery and re-assessed on the 7th day after surgery and on the 11th to 14th day before drug dosing. The rat Chung model was prepared as described by Kim and Chung (1992). The rat was anaesthetized with 5% isoflurane mixed with oxygen (2 L per min) followed by an i.p. injection of sodium pentobarbitone at 50 mg/kg. The back was shaved and sterilized with 75% ethanol. The animal was placed in a prone position and a para-medial incision was made on the skin covering L4-6 level. The L5 spinal nerve was carefully isolated and tightly ligated with 6/0 silk suture. The wound was then closed in layers after a complete hemostasis. A single dose of antibiotics (Amoxipen 15 mg/rat, ip) was routinely given for prevention of infection after surgery. The animals were placed in a temperature controlled recovery chamber until fully awake before being returned to the home cage. The animals were placed in individual Perspex boxes on a raised metal mesh for at least 40 min before the test. Starting with the filament of lowest force, each filament was applied perpendicularly to the center of the ventral surface of the paw until slightly bent for 6 seconds. If the animal withdrew or lifted the paw upon stimulation, then a hair with force immediately lower than that tested was used. If no response was observed, then a hair with force immediately higher was tested. The lowest amount of force required to induce reliable responses (positive in 3 out of 5 trials) was recorded as the value of PWT. Only those animals with significant allodynia (PWT≦3.5 g) were selected for drug dosing experiments. The rats in a neuropathic pain state were randomly divided into experimental groups: Vehicle group and 1 group had 8 rats and the gabapentin group had 9 rats. The drug test was carried out 12 to 14 days after surgery. Isotonic 50 mM phosphate buffer (PB), dosed orally at 3 mL/kg, served as the vehicle control. Gabapentin was dissolved in normal saline and given orally at 100 mg/kg. […] The PWT was assessed at 1, 3, 6 and 24 h following drug or vehicle administration. The animals were returned to their home cage for a break (about 30 min) between two neighboring testing time points. One-way analysis of variance (ANOVA) (SPSS software) was used for statistical analysis to compare different groups on the same time points. Paired Student -t test was used to compare different time points in the same group. The significance level was set at P<0.05.

[2] = target: Human DAAO (Homo sapiens, UniProt P14920); experiment: D-Amino Acid Oxidase enzyme assay (D-serine, horseradish peroxidase/Amplex Red coupled); assay type: biochemical; conditions: D-serine 5 mM, pH 7.4; read-out: Human DAAO Inhibition [IC50]
Human DAAO, sequence (P14920 whole entry): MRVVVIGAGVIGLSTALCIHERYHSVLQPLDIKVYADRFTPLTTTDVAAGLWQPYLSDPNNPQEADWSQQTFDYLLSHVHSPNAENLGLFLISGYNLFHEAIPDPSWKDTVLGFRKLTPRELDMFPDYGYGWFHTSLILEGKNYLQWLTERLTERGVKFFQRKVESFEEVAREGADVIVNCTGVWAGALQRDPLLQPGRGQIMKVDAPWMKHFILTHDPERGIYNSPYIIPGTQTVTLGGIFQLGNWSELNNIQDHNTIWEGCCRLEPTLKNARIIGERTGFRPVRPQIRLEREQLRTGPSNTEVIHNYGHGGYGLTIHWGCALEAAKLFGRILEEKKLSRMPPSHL
Description: This coupled reaction uses the enzyme substrate Amplex Red (Molecular Probes), which is converted to the fluorescent reaction product, resorufin (excitation 530-560 nm; emission ˜590 nm). Although DAAO has a higher pH optimum, all reagents were prepared in 50 mM sodium phosphate buffer at pH 7.4 and inhibition curves were generated at this pH.
The reactions were initiated by addition of DAAO enzyme while the fluorescence was monitored. […] Inhibition curves were generated in the presence of varying concentrations of the inhibitor and IC50 values were calculated for each inhibitor.

Compound: O=C(O)c1cc2occc2[nH]1 [Compound 11, 4H-Furo[3,2-b]pyrrole-5-carboxylic acid]
- Effect on paw withdrawal threshold (PWT) ([1]; oral dose of 10 mg/kg): significantly elevated the PWT

Compound: O=C(O)c1cc2occ(CCc3ccccc3)c2[nH]1 [Compound 17, 3-phenethyl-4H-furo[3,2-b]pyrrole-5-carboxylic acid]
- IC50 [2]: < 1 µM

Compound: O=C(O)c1cc2oc(Cc3ccccc3)cc2[nH]1 [Compound 24, 2-benzyl-4H-furo[3,2-b]pyrrole-5-carboxylic acid]
- IC50 [2]: < 100 µM

Compound: O=C(O)c1cc2occ(Cc3ccccc3)c2[nH]1 [Compound 26, 3-benzyl-4H-furo[3,2-b]pyrrole-5-carboxylic acid]
- IC50 [2]: < 100 µM

Compound: C=Cc1coc2cc(C(=O)O)[nH]c12 [Compound 32, 3-vinyl-4H-furo[3,2-b]pyrrole-5-carboxylic acid]
- IC50 [2]: < 0.1 µM

Compound: C/C=C\c1coc2cc(C(=O)O)[nH]c12 [Compound 46, (Z)-3-(prop-1-enyl)-4H-furo[3,2-b]pyrrole-5-carboxylic acid]
- IC50 [2]: < 100 µM

Compound: O=C(O)c1cc2occ(/C=C/c3ccccc3)c2[nH]1 [Compound 48, (E)-3-Styryl-4H-furo[3,2-b]pyrrole-5-carboxylic acid]
- IC50 [2]: < 100 µM

Compound: NCC1(CC(=O)O)CCCCC1 [Gabapentin]
- Course of the effect on PWT after the peak ([1]; orally dosed at 100 mg/kg): gradually declined from 6 hours onwards
- Time at which the effect on PWT commenced after dosing ([1]; orally dosed at 100 mg/kg): first hour
- Time of peak effect on PWT after dosing ([1]; orally dosed at 100 mg/kg): 3 h
- Effect on paw withdrawal threshold (PWT) ([1]; orally dosed at 100 mg/kg, positive control): significantly increased the PWT
